The values that follow come from ChEMBL document CHEMBL3865781, “Recent advances in the discovery and development of antibacterial agents targeting the cell-division protein FtsZ” (Bioorg Med Chem, 2016).

Values after ≈ are worked out from the molar mass of the structure shown.

A short description of assay [1]: Displacement of mant-GTP from Bacillus subtilis FtsZ by spectrofluorometric assay.
In assay [2] the test system is Bacillus subtilis. Kind of assay: Antibacterial activity against Bacillus subtilis by broth dilution method. The assay is classed as functional.
Another assay relates to Klebsiella pneumoniae. Kind of assay: Antibacterial activity against Klebsiella pneumoniae ATCC BAA-1144 after 18 hrs by broth microdilution method. In kind it is functional. The following applies: ATCC BAA-1144, 18 h.
For assay [3], the system named is Staphylococcus aureus. Kind of assay: Antibacterial activity against methicillin-resistant Staphylococcus aureus by broth dilution method. The assay is classed as functional.
The test system of assay [4] is Enterococcus faecalis. Kind of assay: Antimicrobial activity against vancomycin-sensitive Enterococcus faecalis after 18 hrs by broth microdilution method. In kind it is functional. In general terms: In broth dilution the organism is exposed to a series of concentrations in liquid medium.
The subject of assay [5] is Staphylococcus aureus. Kind of assay: Antibacterial activity against methicillin-sensitive Staphylococcus aureus after 18 hrs by broth microdilution method. In kind it is functional.
The subject of assay [6] is Escherichia coli. Kind of assay: Antibacterial activity against Escherichia coli by broth dilution method. The assay is classed as functional.
Assay [7] has as its system Staphylococcus aureus. Kind of assay: Antibacterial activity against methicillin-resistant Staphylococcus aureus ATCC BAA-41 after 18 hrs by broth microdilution method. The conditions noted are these: ATCC BAA-41, 18 h. In kind it is functional.
Assay [8] has as its system Escherichia coli. Kind of assay: Antibacterial activity against Escherichia coli ATCC 25922 after 18 hrs by broth microdilution method. The assay is classed as functional. The conditions noted are these: ATCC 25922, 18 h.
Assay [9] has as its system Enterococcus faecalis. Kind of assay: Antimicrobial activity against vancomycin-resistant Enterococcus faecalis after 18 hrs by broth microdilution method. The assay is classed as functional.
A short description of assay [10]: Inhibition of Escherichia coli FtsZ GTPase activity expressed in Escherichia coli BL21 preincubated for 5 mins followed by GTP addition after 15 mins by malachite green based spectrophotometric analysis.
Assay [11] in a line: Inhibition of Escherichia coli FtsZ polymerization expressed in Escherichia coli BL21 assessed as reduction in light scattering intensity in presence of GTP by fluorescence spectrometric analysis.
Assay [12] has as its system Mycobacterium tuberculosis. Kind of assay: Antibacterial activity against Mycobacterium tuberculosis TN587 clinical isolates measured every 24 hrs for 7 days by MABA assay. In kind it is functional. In general terms: Alamar Blue is a resazurin reagent that responds to reducing activity.
Assay [13] concerns Mycobacterium tuberculosis. Kind of assay: In vivo antibacterial activity against Mycobacterium tuberculosis H37Rv infected in GKO-TB mouse assessed as reduction in bacterial load in spleen at 50 mg/kg, ip or po bid for 10 consecutive days. In kind it is functional.
Assay [14] deals with Mycobacterium tuberculosis. Kind of assay: Antibacterial activity against Mycobacterium tuberculosis H37Rv measured every 24 hrs for 7 days by MABA assay. In kind it is functional.
The subject of assay [15] is Mycobacterium tuberculosis. Kind of assay: In vivo antibacterial activity against Mycobacterium tuberculosis str. Erdman infected in C57BL/6 mouse assessed as reduction in bacterial load in lungs at 50 mg/kg, ip bid on day 5 to 14 post infection measured on day 15 post infection. In kind it is functional, Erdman = ATCC 35801.
Assay [16] relates to Mycobacterium tuberculosis. Kind of assay: Antibacterial activity against Mycobacterium tuberculosis NHN382 clinical isolates measured every 24 hrs for 7 days by MABA assay. In kind it is functional.
Assay [17] concerns Mycobacterium tuberculosis. Kind of assay: Antibacterial activity against Mycobacterium tuberculosis W210 clinical isolates measured every 24 hrs for 7 days by MABA assay. The assay is classed as functional.
In assay [18] the test system is Mycobacterium tuberculosis. Kind of assay: Antibacterial activity against Mycobacterium tuberculosis NHN20 clinical isolates measured every 24 hrs for 7 days by MABA assay. The assay is classed as functional.
Assay [19] relates to Bacillus subtilis. Kind of assay: Antibacterial activity against Bacillus subtilis. In kind it is functional.
Assay [20] has as its system Mycobacterium tuberculosis. Kind of assay: Antimycobacterial activity against Mycobacterium tuberculosis H37Rv after 2 weeks. In kind it is functional. The following applies: 336 h.
Assay [21] has as its system Escherichia coli. Kind of assay: Antibacterial activity against Escherichia coli ATCC 25922 after 18 hrs by broth microdilution assay. The assay is classed as functional. The conditions noted are these: ATCC 25922, 18 h.
Assay [22] relates to Staphylococcus aureus. Kind of assay: Antibacterial activity against Staphylococcus aureus ATCC 29213 after 18 hrs by broth microdilution assay. In kind it is functional. The following applies: ATCC 29213, 18 h.
Assay [23] addresses T1, Cell division protein FtsZ (Staphylococcus aureus, UniProt P0A031).
T1 sequence (P0A031 whole entry): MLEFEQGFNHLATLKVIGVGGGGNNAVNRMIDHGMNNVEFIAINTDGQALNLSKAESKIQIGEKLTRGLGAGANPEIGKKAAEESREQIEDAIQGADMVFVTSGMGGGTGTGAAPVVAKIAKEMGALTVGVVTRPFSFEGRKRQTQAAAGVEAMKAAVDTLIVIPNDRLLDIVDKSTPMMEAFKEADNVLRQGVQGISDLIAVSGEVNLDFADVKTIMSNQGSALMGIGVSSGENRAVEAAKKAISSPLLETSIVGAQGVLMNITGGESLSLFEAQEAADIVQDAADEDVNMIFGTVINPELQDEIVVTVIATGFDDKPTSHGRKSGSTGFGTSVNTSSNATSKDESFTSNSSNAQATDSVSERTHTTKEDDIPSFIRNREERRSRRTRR
Kind of assay: Inhibition of Staphylococcus aureus ATCC 29213 N-terminal His6-tagged FtsZ GTPase activity expressed in Escherichia coli BL21(DE3) assessed as reduction in inorganic phosphate release preincubated for 10 mins followed by GTP addition after 30 mins.

For orientation: Kd means the concentration at which binding is half-saturated. In assay [1], `O=C(Oc1cc(OC(=O)c2cccc(O)c2)cc(-c2ccccc2)c1)c1cccc(O)c1` yielded a Kd of 0.5 µM.
One may read the MIC as the least concentration at which growth counts as inhibited. Low readings indicate inhibition by little substance, high ones a need for much substance. On to `O=C/C=C/c1ccccc1` [CINNAMALDEHYDE], for which the MIC against Bacillus subtilis [2] is 0.5 µg/mL (≈ 3.78 µM); in the assay on Klebsiella pneumoniae, 32 to 128 µg/mL (≈ 242 to 969 µM); with Staphylococcus aureus [3], 0.25 µg/mL (≈ 1.89 µM); against Enterococcus faecalis [4], 4 to 16 µg/mL (≈ 30.3 to 121 µM); against Staphylococcus aureus [5], 2 to 8 µg/mL (≈ 15.1 to 60.5 µM); in the assay on Escherichia coli [6], 0.1 µg/mL (≈ 0.757 µM). In addition, the MIC is 2 to 8 µg/mL (≈ 15.1 to 60.5 µM) in the assay with Staphylococcus aureus [7], 32 to 128 µg/mL (≈ 242 to 969 µM) against Escherichia coli [8] and 4 to 16 µg/mL (≈ 30.3 to 121 µM) against Enterococcus faecalis [9].
In general, IC50 refers to the concentration that gives 50% inhibition. Consider `O=c1ccc2ccc(O)c(O)c2o1` [DAPHNETIN], for which the minimal inhibitory concentration (MIC) fell in the range of 32 to 128 µg/mL (≈ 180 to 719 µM) in the assay on Klebsiella pneumoniae; 4 to 16 µg/mL (≈ 22.5 to 89.8 µM) with Enterococcus faecalis [4]; 2 to 8 µg/mL (≈ 11.2 to 44.9 µM) with Staphylococcus aureus [5]; 2 to 8 µg/mL (≈ 11.2 to 44.9 µM) against Staphylococcus aureus [7]; 32 to 128 µg/mL (≈ 180 to 719 µM) against Escherichia coli [8]. The IC50 in assay [10] worked out at 57 µM; in assay [11], 73 µM.
As usually defined, the MIC99 is an inhibitory concentration at the 99% level, which refers to growth in some studies and to a panel of isolates in others. High values mean lower susceptibility, low ones higher susceptibility. For the molecule `CN(C)c1cc2[nH]c(C3CCCCC3)nc2cc1NC(=O)c1ccc(OC(F)(F)F)cc1F`, the MIC99 was 0.31 µg/mL (≈ 0.667 µM) in [12]; 0.31 µg/mL (≈ 0.667 µM) in assay [14]; 0.31 µg/mL (≈ 0.667 µM) in [16]; 0.47 µg/mL (≈ 1.01 µM) in [17]; 0.24 µg/mL (≈ 0.517 µM) in assay [18]. Besides, the Activity is recorded as 3.9 - 5 log10CFU in assay [13] and 5.7 - 6.3 log10CFU in assay [15].
The molecule `O=C(Oc1cc(OC(=O)c2cc(O)c(O)c(O)c2)c2ccccc2c1)c1cc(O)c(O)c(O)c1` registered an equilibrium dissociation constant (Kd) in assay [1] of 0.4 to 0.8 µM. The same molecule yielded a minimum inhibitory concentration (MIC) with Bacillus subtilis [19] of 100 µM (≈ 46.4 µg/mL).
Turning to `O=c1ccc2ccc(O)cc2o1` [UMBELLIFERONE], the MIC in assay [20] was 58 µg/mL (≈ 358 µM).
With `CCC(CC)c1cc([C@H]2CN3CC[C@H]2C[C@@H]3CN)nc(-c2ccncc2)n1`, the minimal inhibitory concentration (MIC) in the assay on Escherichia coli [21] turned out to be 49.6 µM (≈ 18.1 µg/mL); against Staphylococcus aureus [22], 24.6 µM (≈ 8.99 µg/mL). Moreover, in assay [23], the IC50 was 37.5 µM.
For `CCc1ccc(C(=O)Nc2cc3nc(C4CCCCC4)[nH]c3cc2N(C)C)cc1`, the MIC99 in assay [12], in assay [14], in assay [16] and in assay [17] was 0.16 µg/mL (≈ 0.41 µM) throughout.
On to `O=C(Oc1cc(OC(=O)c2cc(O)cc(O)c2)c2ccccc2c1)c1cc(O)cc(O)c1`, for which the dissociation constant (Kd) in [1] was 0.4 to 0.8 µM. Moreover, inhibition of growth against Bacillus subtilis [19] (MIC) required 25 µM (≈ 10.8 µg/mL).
For the molecule `CCCCOC(=O)Nc1cc2nc(C3CCCCC3)[nH]c2cc1N1CCCC1`, the MIC99 stood at 0.16 µg/mL (≈ 0.416 µM) in assay [12], 0.39 µg/mL (≈ 1.01 µM) in assay [14], 0.31 µg/mL (≈ 0.806 µM) in assay [16] and 0.63 µg/mL (≈ 1.64 µM) in assay [17].
On to `C=CCc1ccc(O)c(OC)c1` [EUGENOL], for which the MIC against Klebsiella pneumoniae lay within 32 to 128 µg/mL (≈ 195 to 780 µM); against Enterococcus faecalis [4] it was 4 to 16 µg/mL (≈ 24.4 to 97.4 µM); against Staphylococcus aureus [5], 2 to 8 µg/mL (≈ 12.2 to 48.7 µM); in the assay with Staphylococcus aureus [7], 2 to 8 µg/mL (≈ 12.2 to 48.7 µM); in the assay with Escherichia coli [8], 32 to 128 µg/mL (≈ 195 to 780 µM); in the assay on Enterococcus faecalis [9], 4 to 16 µg/mL (≈ 24.4 to 97.4 µM). The IC50 in assay [11] is above 250 µM.
